What is called pEC50 is −log10 of the EC50, conventionally taken in molar units. In general, pIC50 refers to −log10 of the IC50, conventionally taken in molar units. Higher therefore signals a low IC50.

pEC50, pIC50: −log10 of the molar value. Several values for one entry are separate records, joined by “and”; a condition that tells them apart may be missing. Equal values may be shown once. Activity calls are given as the source filed them.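 The calls were made as follows: active = compounds giving half or more protection of infected cells from virus-caused growth loss, again on retest; inactive = the rest.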 Where a SMILES comes first, the peptide text is derived from it. Some results are limits rather than exact numbers.

For 74 molecules, EC50, IC50 and outcome results are on record in PubChem BioAssay AID179 (DTP/NCI, 2004).

The subject of this experiment is CEM cells HIV-1 protection, formazan growth assay. Description: NCI AIDS Antiviral Assay. The settings on record: for pIC50: measured here: growth of uninfected CEM cells. The method in brief: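 Steps: treat uninfected and HIV-1-infected human CEM cells at five drug levels; quantify growth by soluble formazan; retest any compound reaching 50% protection; classify actives from the retest.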

For the molecule `COC(=O)Nc1cn2nc(N)sc2n1`, the pEC50 is less than 3.70 and the negative-log IC50 (pIC50) is less than 3.70. As for `Nc1ncc(CN2CCOCC2)c(-c2ccccc2O)n1`, the pEC50 was less than 3.70 and the pIC50 is less than 3.70. As for `CCOP(=O)(OCC)/C(C#N)=C/c1ccc(CO)o1`, the pEC50 was less than 3.06 and the pIC50 is 3.75. Regarding `O=P(O)(O)CC1OC(CO)C(O)C1O` (stereo not drawn), the pEC50 is less than 3.70 and the pIC50 is less than 3.70. As for `O=c1c2ccccc2nc(/C=C(\O)c2ccccc2)n1-c1ccccc1Cl`, the result was inactive. In the case of `CC1=C(N2CC2)C(=O)c2nc3n(c2C1=O)CCC3OC(=O)CCl` (stereo not drawn), the pEC50 is less than 3.70 and the pIC50 was 6.16. For the molecule `COc1ccc(-n2cnc3c(NC(CCSC)C(=O)O)ncnc32)cc1` (stereo not drawn), the pEC50 was 4.12 and the pIC50 is less than 3.70. Consider `CC1(C)OC([C@H](O)CO)C([C@H]2NCCS2)O1` (stereo partly drawn), for which the pEC50 was less than 3.70 and the pIC50 is less than 3.70.

On to `OCC[N+]12CCCN1CCC2`, for which the pEC50 was less than 2.98 and the pIC50 is less than 2.98. On to `CN1CCN(c2cc3nc(-c4ccc(Cl)cc4)[nH]c3cc2F)CC1`, for which the pEC50 was less than 3.70 and the pIC50 is 4.94. Regarding `CNC(=O)OCC1=CC(=O)C=C(OC)C1=O`, the pEC50 was less than 3.26 and the pIC50 was 4.96.

Regarding `CC(C)CC(NC(=O)C(Cc1ccc(O)cc1)NC(=O)CNC(=O)C(N)CCC(=O)O)C(=O)NC(Cc1c[nH]c2ccccc12)C(=O)O` (stereo not drawn) (H-EGYLW-OH; configuration not given here), the outcome was inactive.

`Cc1ccc(OCC2OC(n3cnc4c(Cl)nc(Nc5cc(Cl)cc(Cl)c5)nc43)CC2Oc2ccc(C)cc2)cc1` (stereo not drawn): the pEC50 is less than 3.70 and the pIC50 was less than 3.70. As to `O=C(O)CCSC(=O)Nc1ccc([N+](=O)[O-])cc1`, the result was inactive. Turning to `O=C(CC(C(=O)c1ccsc1)c1cccs1)c1ccccc1` (stereo not drawn), the pEC50 was less than 3.70 and the pIC50 was 4.31. `CCOC(=O)c1cc(C2(O)CCN(Cc3ccccc3)C2=O)c(-c2cc(C)no2)[nH]1` (stereo not drawn): the pEC50 is less than 3.70 and the pIC50 is 4.41. Turning to `O=C(O)c1nc2sc(C(=O)O)nc2s1`, the result was inactive. Take `CC(=O)NS(=O)(=O)c1ccc(NC(=O)c2ccccc2SSc2ccccc2[N+](=O)[O-])cc1`: the pEC50 was 5.05 and the pIC50 was 4.51. Taken in the same sequence, the figures for `O=[N+]([O-])c1ccccc1N=Cc1ccccc1O` were less than 3.70 and less than 3.70. On to `COC(=O)C1C2CC3c4[nH]c5cc(OC)ccc5c4CCN3CC2CC(OC)C1OC` (stereo not drawn), for which the pEC50 was less than 3.70 and the pIC50 is less than 3.70. Take `O=[N+]([O-])C(=C(c1ccccc1)c1ccccc1)[N+](=O)[O-]`: the outcome was inactive. As to `O=[N+]([O-])c1nccn1CC(O)c1ccccc1` (stereo not drawn), the pEC50 was less than 2.97 and the pIC50 was less than 2.97. As to `COc1ccc2c(c1)OCCCN(C)OC2c1ccccc1` (stereo not drawn), the outcome was inactive.

For `CCCCNC(=O)/C(=C/c1ccc2c(c1)OCO2)NC(=O)c1ccccc1`, the pEC50 is less than 3.70 and the pIC50 was less than 3.70.

For `N#CC1CC(c2ccccc2)Nc2cc(Cl)ccc2N1` (stereo not drawn), the pEC50 is less than 4.32 and the pIC50 was 5.16. In the same order, the values of `COc1ccc(-c2cn3c([nH]c(=O)c4cc(Br)ccc43)c2C#N)cc1` are less than 3.70 and 3.74.

With `O=c1onc2c3ccccc3ncn12`, the pEC50 was less than 3.70 and the pIC50 is less than 3.70. For the molecule `CSc1c(C#N)c(N)n(-c2ccc(Cl)cc2)c(=O)c1C#N`, the pEC50 was 4.17 and the pIC50 was 4.14. As for `COc1c(-c2ccc(F)cc2)oc2c(CC(=O)O)cccc2c1=O`, the pEC50 is less than 3.70 and the pIC50 was 3.79. As for `CCCCCCCCOCC(O)COC(=O)CCCCCCC` (stereo not drawn), the pEC50 is less than 3.60 and the pIC50 was 4.68.

With `COc1c(C=O)c2c(c(OC)c1OC)-c1ccc(OC)c(=O)cc1[C@@H](NC(C)=O)CC2`, the pEC50 was less than 6.70 and the pIC50 is 7.96. Regarding `O=c1ccc2ccccc2o1`, the pEC50 was less than 2.77 and the pIC50 is 2.85.

As for `CC(C1=CC=C2[C@@H]3CCC4CC(N(C)C)CC[C@]4(C)C3CC[C@]12C)N(C)C=O` (stereo partly drawn), the pEC50 was less than 4.45 and the pIC50 was less than 4.45.

Turning to `CC(=O)Nc1nc(NC(C)=O)c(N=O)c(NC(C)=O)n1`, the pEC50 is less than 3.70 and the pIC50 was 3.94. Taken in the same sequence, the figures for `COC(=O)/C=C/C1C2C3(CCC(C)C12C)OCCS3` (stereo not drawn) were less than 3.90 and less than 3.90.

`CCOC(=O)C(=O)N=Nc1c(O)[nH]c2ccccc12`: the pEC50 was less than 3.70 and the negative-log IC50 (pIC50) was less than 3.70. As for `CC1CC(C)(C)N=C(CCC[N+](=O)[O-])O1` (stereo not drawn), the pEC50 was less than 3.70 and the pIC50 was less than 3.70. On to `Cc1c(O)nc(CO)[nH]c1=O`, for which the pEC50 is less than 3.70 and the pIC50 was less than 3.70. Consider `N#Cc1ccc(NC(=NCC(=O)O)Nc2ccc3ccccc3c2)cc1`, for which the outcome was inactive. In the case of `O=[N+]([O-])c1ccccc1C1N2CCCCC2[C@@H]2c3[nH]c4ccccc4c3CCN12` (stereo partly drawn), the pEC50 was less than 4.73 and the pIC50 was less than 4.73. As for `O=C1c2cc3c(cc2CC12Cc1ccc4c(c1C2=O)CCC4)CCCC3` (stereo not drawn), the pEC50 is less than 3.70 and the pIC50 was less than 3.70. As for `Cc1cc(N(CCC#N)CCC#N)ccc1/C(N=Nc1cccc(Cl)c1)=N/NC(=O)c1cc(Cl)ccc1O`, the pEC50 is less than 3.70 and the pIC50 is 4.93. In the same order, the values of `CC(=O)Nc1ncc(Sc2ccccc2C(=O)O)s1` are less than 3.70 and less than 3.70. As to `CSc1nc(-c2ccccc2)c(C#N)c(=O)[nH]1`, the outcome was inactive. Take `O=C(CCN1CCCCC1CCO)Nc1ccc2c(c1)C(=O)c1ccc(NC(=O)CCN3CCCCC3CCO)cc1C2=O` (stereo not drawn): the pEC50 was less than 3.70 and the pIC50 was 5.58. Taken in the same sequence, the figures for `CN1CCOC1(C)c1ccccc1` (stereo not drawn) were less than 3.70 and less than 3.70.

Consider `NCCn1ccc(NC(c2ccccc2)(c2ccccc2)c2ccccc2)nc1=O`, for which the pEC50 was less than 4.04 and the pIC50 was 4.34.

Regarding `Clc1cc2nnn(C3CCCCO3)c2cc1Cl` (stereo not drawn), the pEC50 is less than 3.70 and the pIC50 was less than 3.70.

For `O=C1C=C2C(=NC34CCCCC3C(c3ccccc3)C3=C(c5ccccc5CC3)N24)c2ccccc21` (stereo not drawn), the pEC50 was 3.73 and the pIC50 was less than 3.70. Taken in the same sequence, the figures for `COc1ccccc1NC(=O)CC(=O)n1nc(-c2ccccc2)c(N=Nc2ccccc2[N+](=O)[O-])c1-c1ccccc1` were less than 4.47 and less than 4.47.

As for `Cn1c(SSc2ccc(-c3cccnc3)n2C)ccc1-c1cccnc1`, the pEC50 was less than 3.70; the pIC50 was 5.73 and 5.61.

For the molecule `O=C(Nc1cccc(C(F)(F)F)c1)C(=O)C(C(=O)c1ccc(Cl)c(Cl)c1)C1OC(=O)c2ccccc21` (stereo not drawn), the pEC50 was less than 3.80 and the pIC50 was 4.86. Taken in the same sequence, the figures for `CN1C2C=CC(=O)C1C1C(=O)N(c3ccccc3)C(=O)C12` (stereo not drawn) were less than 3.05 and 5.28. In the same order, the values of `CCn1c(SCC(=O)NNC(=S)Nc2ccc(Cl)cc2)nc2ccccc2c1=O` are less than 3.70 and 4.02. Taken in the same sequence, the figures for `COC1=CC(=O)c2ccc(C(C)C)cc2C1(C)C1=NC(C)(C)CO1` (stereo not drawn) were less than 3.82 and less than 3.82. For `Cc1cc2c(cc1-c1cc3c(cc1C)C(C(C)C)=C(O)C(=O)/C3=C\Nc1c3ccccc3nc3ccccc13)/C(=C/Nc1c3ccccc3nc3ccccc13)C(=O)C(O)=C2C(C)C`, the pEC50 is less than 4.00 and the pIC50 is 5.76. Turning to `CCCCCCCCCCCCC(Br)C(=O)SCCNC(=O)CCNC(=O)[C@@H](O)C(C)(C)COP(=O)(O)OP(=O)(O)OCC1OC(n2cnc3c(N)ncnc32)C(O)C1OP(=O)(O)O` (stereo partly drawn), the result was inactive. Take `CCCC1(N)CC(OC)OC(C)C1O` (stereo not drawn): the pEC50 was less than 3.70 and the pIC50 is less than 3.70. Regarding `OCCN1CCN(C2=Nc3cccnc3Nc3cscc32)CC1`, the pEC50 is less than 3.70 and the pIC50 is less than 3.70. On to `CC(O)C(C(=O)O)N(CC1(O)OCC(O)C(O)C1O)N=O` (stereo not drawn), for which the result was inactive. Take `CCO/C=C1\C(=O)N(C(C)=O)c2cc(OC)c(OC)cc21`: the pEC50 is less than 3.70 and the pIC50 is 4.57.

For the molecule `CCN(CC)c1ccc(Cl)c2c1C(O)(C(C)C)C2(C)C` (stereo not drawn), the pEC50 is less than 3.70 and the pIC50 is 4.23.

In the case of `COc1cc(/C=C/C(=N\NC(=O)c2ccccc2)c2sc(Nc3ccc(Cl)c(Cl)c3)nc2C)ccc1O`, the pEC50 is less than 4.33 and the pIC50 was 4.41.

As for `C#CCSc1nnnn1-c1ccccc1`, the pEC50 was less than 3.70 and the pIC50 is 5.49. Taken in the same sequence, the figures for `Cc1nc2ccc(Br)cc2c(=O)n1-c1nnc(C(C)(C)C)s1` were less than 3.70 and less than 3.70.

In the case of `CC(C)(C)c1ccc(O)c(C(c2ccc([N+](=O)[O-])cc2)c2cc(C(C)(C)C)ccc2O)c1`, the pEC50 is less than 3.70 and the pIC50 is 5.45. In the case of `Cc1c2ccccc2nc(CN2CCOCC2)[n+]1[O-]`, the pEC50 is less than 3.70 and the pIC50 was less than 3.70. `CC(=O)Nc1ccc(N)c2cc(S(=O)(=O)O)ccc12`: the pEC50 is less than 3.70 and the pIC50 is less than 3.70. As for `COCn1c2ccc(OC(C)=O)cc2c2c(=O)oc(N(C)C)nc21`, the pEC50 is less than 3.70 and the pIC50 is less than 3.70. For `CCCCCCN1CCc2c(C)c(C#N)c3nc4ccccc4n3c21`, the pEC50 was less than 4.00 and the pIC50 was 4.75. `Cc1nc(N)c(N2CCN(Cc3ccccc3)CC2)c(=O)[nH]1`: the pEC50 is less than 3.70 and the pIC50 was less than 3.70. With `NC(CSSCC(N)C(=O)O)C(=O)O` (stereo not drawn), the pEC50 was less than 3.70 and the pIC50 is less than 3.70. Consider `CCn1c2ccccc2c2nnc(NCCCO)nc21`, for which the pEC50 was less than 3.70 and the pIC50 was 3.85. In the same order, the values of `CCOC(=O)N/N=C(/N)Cc1ccc(Cl)cc1` are less than 3.70 and 3.92.
